Results published in US10525017B2, “Composition containing meso-2,3-butanediol” (Amorepacific Corporation, priority 2014, dated 2020).

Legend:
[1] = tested on: Pseudomonas aeruginosa (ATCC 9027); test: Antibacterial activity test (MIC); format: cell-based; conditions: broth culture, 25 to 32° C., 24 to 72 hours; tested 0.01 to 10% (v/v)
Procedure: (§1) In order to compare the antibacterial activities by the position and stereoscopic orientation of the hydroxyl group of the diol, the antibacterial activities (minimum inhibitory concentration, MIC) against the samples described in Table 1 below, that is, six kinds of diols such as 1,3-butanediol, were measured.
(§2) The antibacterial activity measurement tests were performed using bacteria, yeasts and molds, such as Escherichia coli (ATCC 8739), Pseudomonas aeruginosa (ATCC 9027), Staphylococcus aureus (ATCC 6538), Candida albicans (ATCC 10231), and Aspergillus niger; (ATCC 16404). Respective substances or the like were added to Tryptic Soy broth and Sabouraud Dextrose (SD) broth at a concentration of 0.01 to 10% (v/v), the culture solution was prepared in a liquid phase, and the bacteria, yeasts, and molds were inoculated, and then cultured at 25 to 32° C. for 24 to 72 hours to observe the state of the bacteria.

[2] = tested on: Staphylococcus aureus (ATCC 6538); test: Antibacterial activity test (MIC); format: cell-based; conditions: broth culture, 25 to 32° C., 24 to 72 hours; tested 0.01 to 10% (v/v)
Procedure: as §1, §2

[3] = tested on: Candida albicans (ATCC 10231); test: Antibacterial activity test (MIC); format: cell-based; conditions: broth culture, 25 to 32° C., 24 to 72 hours; tested 0.01 to 10% (v/v)
Procedure: as §1, §2

[4] = tested on: Escherichia coli (ATCC 8739); test: Antibacterial activity test (MIC); format: cell-based; conditions: broth culture, 25 to 32° C., 24 to 72 hours; tested 0.01 to 10% (v/v)
Procedure: as §1, §2

[5] = tested on: Aspergillus niger (ATCC 16404); test: Antibacterial activity test (MIC); format: cell-based; conditions: broth culture, 25 to 32° C., 24 to 72 hours; tested 0.01 to 10% (v/v)
Procedure: as §1, §2

[6] = Skin irritation test, 24 h patch test; format: in vivo, human
Procedure: In order to evaluate the skin safety of a human body on 1,3-butanediol, 1,2-butanediol and 1,2-hexanediol (conventionally used diol), which are similar to meso-2,3-butanediol, S,S-2,3-butanediol and R,R-2,3-butanediol that are stereoisomers of 2,3-butanediol except that the position of a hydroxy group is different, the patch test was carried out for 24 hours. The patch was attached to the upper part of the subject's back, and 20 μl of the prepared test substance was applied to the patch using an IQ chamber (chemotechique, Sweeden). The patch was attached and after the lapse of 24 hours, the patch was removed. After removal of the patch, the first reading was performed after 30 minutes, and the second reading was performed after 24 hours.
In order to investigate the intensity of the skin irritation of the samples, weighting values were given according to the degree of positive reaction of the skin, skin average reactivity was determined, and the skin irritation of the sample was judged. The skin average reactivity was calculated using the mathematical formula 1 below, and the determination criteria are as shown in Table 5 below.

[7] = Content 30%, 20 μl, 24 h patch on back, less than 1 = no irritation, 1-3 mild, 3-5 moderate

| SMILES | minimum inhibitory concentration, MIC, P. aeruginosa [1] | minimum inhibitory concentration, MIC, S. aureus [2] | minimum inhibitory concentration, MIC, C. albicans [3] | minimum inhibitory concentration, MIC, E. coli [4] | minimum inhibitory concentration, MIC, A. niger [5] | Skin irritation Score (skin average reactivity) [6, 7] | Skin irritation Score (skin average reactivity) ([6]; human, in vivo, 24 h, 30 %) | Skin irritation Score (skin average reactivity) ([6]; human, in vivo, 24 h, 20 %) | numerical value of skin irritation, in words ([6]; in vivo) |
| --- | --- | --- | --- | --- | --- | --- | --- | --- | --- |
| CC(O)CCO (stereo not shown) [1,3-butanediol] | >10 % (v/v) | >10 % (v/v) | >10 % (v/v) | >10 % (v/v) | >10 % (v/v) | 0.52 |  |  |  |
| CCCCC(O)CO (stereo not shown) [1,2-hexanediol] | 1.25 % (v/v) | 2.5 % (v/v) | 1.25 % (v/v) | 1.25 % (v/v) | 0.625 % (v/v) |  |  | 2.54 |  |
| CCC(O)CO (stereo not shown) [1,2-butanediol] | 2.5 % (v/v) | 1.25 % (v/v) | 5 % (v/v) | 5 % (v/v) | 2.5 % (v/v) | 2.48 |  |  |  |

Further lines, with some results ahead:

| minimum inhibitory concentration, MIC, P. aeruginosa [1] | minimum inhibitory concentration, MIC, S. aureus [2] | minimum inhibitory concentration, MIC, C. albicans [3] | minimum inhibitory concentration, MIC, E. coli [4] | minimum inhibitory concentration, MIC, A. niger [5] | SMILES | Skin irritation Score (skin average reactivity) [6, 7] | Skin irritation Score (skin average reactivity) ([6]; human, in vivo, 24 h, 30 %) | Skin irritation Score (skin average reactivity) ([6]; human, in vivo, 24 h, 20 %) | numerical value of skin irritation, in words ([6]; in vivo) |
| --- | --- | --- | --- | --- | --- | --- | --- | --- | --- |
| 5 % (v/v) | 2.5 % (v/v) | 5 % (v/v) | 5 % (v/v) | 1.25 % (v/v) | C[C@H](O)[C@H](C)O [S,S-2,3-butanediol] |  | 2.12 |  |  |
| 5 % (v/v) | 10 % (v/v) | 5 % (v/v) | 2.5 % (v/v) | 5 % (v/v) | C[C@@H](O)[C@@H](C)O [R,R-2,3-butanediol] |  | 1.45 |  |  |
| 2.5 % (v/v) | 5 % (v/v) | 2.5 % (v/v) | 1.25 % (v/v) | 1.25 % (v/v) | C[C@H](O)[C@@H](C)O [Meso-2,3-butanediol, meso-2,3-butanediol] |  | 0.41 |  | lower |
